The record followed here is patent US20170152239A1, “BENZAMIDE AND HETEROBENZAMIDE COMPOUNDS” (PFIZER INC., priority 2012, published 2017).

Broadly, the IC50 is the concentration that gives 50% inhibition.

Test [1] deals with WT EZH2 (EZH2 4 protein complex: EZH2, EED, SUZ12, RbAp48) (Homo sapiens, UniProt O75530+Q09028+Q15022+Q15910). The experiment in a line: WT EZH2 nucleosome assay. It counts as biochemical. The settings on record: nucleosome assay, 5 nM EZH2 4-protein complex, 1.5 μM SAM; read-out: WT EZH2 IC50. The procedure, abridged: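 Radiometric methyltransferase assay: 5 nM EZH2 four-protein complex, 1.5 μM 3H-SAM, 25 μg/mL HeLa oligonucleosomes, 50 nM recombinant H1 in 100 mM Tris pH 8.5, 4 mM DTT, 0.01% Tween-20. 60 min reaction, TCA quench, filter capture, scintillation counting; IC50 from 11-point 4-parameter fit; % effect at 20 μM.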

The next test deals with EZH2PRC2 mutant Y641N (Homo sapiens, UniProt Q15910, Y641N). Briefly: EZH2PRC2 mutant Y641N nucleosome assay. The test is classed as biochemical. The following applies: read-out: EZH2PCR2 Mutant Y641N IC50. The procedure: Nucleosome Assay Protocol:
A. Compound preparation • 1. Prepare 10 mM stock solutions in 100% DMSO from solid material • 2. Serial dilute 10 mM compound stocks either 2 or 3-fold in 100% DMSO to generate compounds for 11 point dose response
B. Reagent preparation • 1. Prepare 1× assay buffer containing 100 mM Tris pH 8.5, 4 mM DTT and 0.01% Tween-20 • 2. Dilute purified HeLA oligonucleosomes and recombinant histone H1 (New England Biolabs) in assay buffer to 1.67×. • 3. Dilute EZH2 4 protein complex (EZH2, EED, SUZ12, RbAp48) to 3.5× in assay buffer • 4. Prepare 10×^3H SAM solution in assay buffer using 0.94 μCi/well of radioactive SAM (Perkin Elmer) and sufficient non-labeled SAM (Sigma) for 1.5 μM final concentration. • 5. Dilute TCA to 20% in DI water
C. Enzyme reaction • 1. Final reaction conditions are 5 nM EZH2 4-protein complex, 1.5 μM SAM, 25 μg/mL oligonucleosomes, 50 nM rH1 in a 50 μl reaction volume. • 2. Add 1 μl of diluted compound to the assay plate (96-well V-bottom polypropylene plates) or 1 μl of DMSO for control wells. • 3. Add 30 μl of nucleosomes to the assay plate • 4. Add 14 μl of EZH2 4 protein complex to the assay plate • 5. Add 5 μl of ^3H SAM to start the reaction. • 6. Stop the reaction after 60 minutes with the addition of 100 μl of 20% TCA • 7. Transfer 150 μl of quenched reaction into a prepared filterplate (Millipore #MSIPN4B10) • 8. Apply vacuum to the filterplate to filter the reaction mix through the membrane. • 9. Wash the filterplate with 8×200 μl of PBS, blot dry and dry in an oven for 30 minutes • 10. Add 50 μl of microscint-20 scintillation fluid (Perkin Elmer) to each well, wait 30 minutes and count on a liquid scintillation counter.
D. Data analysis • 1. IC50 values were determined by fitting the data to a 4-parameter IC50 equation using proprietary curve fitting software.
Wild type (WT) EZH2% Effect at 20 μM and IC50 values (μM) generated in WT EZH2 or EZH2PRC2 mutant Y641N nucleosome assays are provided in Table 3 below. A blank entry in the table indicates the data was not generated in that assay.

WT EZH2 (EZH2 4 protein complex: EZH2, EED, SUZ12, RbAp48), sequence (Q15910 whole entry): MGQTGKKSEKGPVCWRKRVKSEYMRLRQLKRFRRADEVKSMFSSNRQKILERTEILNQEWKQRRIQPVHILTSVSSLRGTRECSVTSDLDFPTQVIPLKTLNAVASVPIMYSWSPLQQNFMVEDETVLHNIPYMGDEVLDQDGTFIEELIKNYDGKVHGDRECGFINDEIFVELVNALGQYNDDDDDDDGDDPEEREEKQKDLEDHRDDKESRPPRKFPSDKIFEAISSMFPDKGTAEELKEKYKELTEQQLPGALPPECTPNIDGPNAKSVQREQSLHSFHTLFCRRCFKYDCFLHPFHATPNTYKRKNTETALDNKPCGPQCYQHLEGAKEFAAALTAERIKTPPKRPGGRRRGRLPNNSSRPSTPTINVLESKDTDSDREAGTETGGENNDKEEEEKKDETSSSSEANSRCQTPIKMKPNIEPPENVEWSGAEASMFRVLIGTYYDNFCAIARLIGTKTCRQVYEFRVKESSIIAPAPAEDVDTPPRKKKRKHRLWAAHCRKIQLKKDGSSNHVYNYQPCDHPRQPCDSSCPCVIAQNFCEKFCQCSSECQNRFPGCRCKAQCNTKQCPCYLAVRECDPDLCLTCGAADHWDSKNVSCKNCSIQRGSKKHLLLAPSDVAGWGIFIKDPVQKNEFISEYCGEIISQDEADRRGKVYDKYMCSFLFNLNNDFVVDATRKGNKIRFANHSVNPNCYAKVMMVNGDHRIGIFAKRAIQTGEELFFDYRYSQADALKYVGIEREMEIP
WT EZH2 (EZH2 4 protein complex: EZH2, EED, SUZ12, RbAp48), sequence (O75530 whole entry partner): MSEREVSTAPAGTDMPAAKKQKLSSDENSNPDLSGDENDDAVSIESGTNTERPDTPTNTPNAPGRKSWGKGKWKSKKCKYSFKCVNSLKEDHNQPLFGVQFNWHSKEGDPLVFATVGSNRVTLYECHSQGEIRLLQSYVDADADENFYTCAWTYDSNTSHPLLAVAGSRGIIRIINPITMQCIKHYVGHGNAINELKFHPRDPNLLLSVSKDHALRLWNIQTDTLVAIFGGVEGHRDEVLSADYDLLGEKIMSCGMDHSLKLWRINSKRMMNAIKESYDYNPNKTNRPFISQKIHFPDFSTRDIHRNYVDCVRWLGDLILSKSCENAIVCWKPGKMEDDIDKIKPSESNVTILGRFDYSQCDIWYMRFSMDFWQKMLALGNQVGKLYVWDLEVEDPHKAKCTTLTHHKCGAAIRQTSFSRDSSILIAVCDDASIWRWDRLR
WT EZH2 (EZH2 4 protein complex: EZH2, EED, SUZ12, RbAp48), sequence (Q15022 whole entry partner): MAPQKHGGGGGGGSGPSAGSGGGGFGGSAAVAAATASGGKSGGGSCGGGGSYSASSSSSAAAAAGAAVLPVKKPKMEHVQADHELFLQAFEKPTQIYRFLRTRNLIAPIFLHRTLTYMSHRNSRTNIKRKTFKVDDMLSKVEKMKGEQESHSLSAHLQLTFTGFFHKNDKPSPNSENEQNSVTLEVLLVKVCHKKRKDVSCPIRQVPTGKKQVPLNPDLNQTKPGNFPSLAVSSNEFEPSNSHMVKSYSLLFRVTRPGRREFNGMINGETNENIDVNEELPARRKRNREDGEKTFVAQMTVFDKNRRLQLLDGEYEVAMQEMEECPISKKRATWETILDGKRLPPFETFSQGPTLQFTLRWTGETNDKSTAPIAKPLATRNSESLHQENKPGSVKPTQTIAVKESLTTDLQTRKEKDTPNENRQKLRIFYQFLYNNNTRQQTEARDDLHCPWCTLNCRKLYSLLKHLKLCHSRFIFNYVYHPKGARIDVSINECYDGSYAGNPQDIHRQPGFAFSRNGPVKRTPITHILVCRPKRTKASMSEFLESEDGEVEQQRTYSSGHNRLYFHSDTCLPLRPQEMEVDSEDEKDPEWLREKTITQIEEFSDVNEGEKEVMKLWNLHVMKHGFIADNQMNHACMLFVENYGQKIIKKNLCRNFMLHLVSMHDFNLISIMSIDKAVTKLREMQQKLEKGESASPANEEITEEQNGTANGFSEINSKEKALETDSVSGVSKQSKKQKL
WT EZH2 (EZH2 4 protein complex: EZH2, EED, SUZ12, RbAp48), sequence (Q09028 whole entry partner): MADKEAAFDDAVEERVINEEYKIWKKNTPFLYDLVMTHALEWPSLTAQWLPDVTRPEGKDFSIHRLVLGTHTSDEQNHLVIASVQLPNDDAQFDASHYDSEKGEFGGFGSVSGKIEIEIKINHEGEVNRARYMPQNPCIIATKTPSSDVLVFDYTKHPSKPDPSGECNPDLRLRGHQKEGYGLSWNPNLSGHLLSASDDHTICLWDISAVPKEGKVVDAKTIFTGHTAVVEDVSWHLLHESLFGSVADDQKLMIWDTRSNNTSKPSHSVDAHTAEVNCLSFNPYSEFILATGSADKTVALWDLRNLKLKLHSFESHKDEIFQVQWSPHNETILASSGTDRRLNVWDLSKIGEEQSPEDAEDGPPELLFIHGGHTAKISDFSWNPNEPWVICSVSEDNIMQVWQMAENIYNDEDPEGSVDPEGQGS
EZH2PRC2 mutant Y641N, sequence (Q15910 whole entry Y641N): as the sequence (Q15910 whole entry) above, with Y641N counted along it
EZH2PRC2 mutant Y641N, sequence (O75530 whole entry partner): as the sequence (O75530 whole entry partner) above
EZH2PRC2 mutant Y641N, sequence (Q15022 whole entry partner): as the sequence (Q15022 whole entry partner) above
EZH2PRC2 mutant Y641N, sequence (Q09028 whole entry partner): as the sequence (Q09028 whole entry partner) above

`Cc1cc(C)c(CNC(=O)c2nc(Cl)nc(N3CCN(C)C[C@@H]3C)c2C)c(=O)[nH]1` [Example 36, 2-chloro-N-[(4,6-dimethyl-2-oxo-1,2-dihydropyridin-3-yl)methyl]-6-[(2S)-2,4-dimethylpiperazin-1-yl]-5-methylpyrimidine-4-carboxamide]: the 50% inhibitory concentration (IC50) in test [1] is 2080 nM; on EZH2PRC2 mutant Y641N it was 13000 nM.

`Cc1cc(C)c(CNC(=O)c2nc(Cl)nc(N3CCOC[C@@H]3C)c2C)c(=O)[nH]1` [Example 37, 2-chloro-N-[(4,6-dimethyl-2-oxo-1,2-dihydropyridin-3-yl)methyl]-5-methyl-6-[(3S)-3-methyl-morpholin-4-yl]pyrimidine-4-carboxamide]: the IC50 in test [1] was determined as 1190 nM; on EZH2PRC2 mutant Y641N, 6250 nM.

Regarding `CNc1ncc(-c2cc(C(=O)NCc3c(C)cc(C)[nH]c3=O)c(C)c(-c3ccnn3C)c2)cn1` [Example 14, N-[(4,6-dimethyl-2-oxo-1,2-dihydropyridin-3-yl)methyl]-2-methyl-5-[2-(methylamino)pyrimidin-5-yl]-3-(1-methyl-1H-pyrazol-5-yl)benzamide], the IC50 in test [1] stood at 27 nM; at EZH2PRC2 mutant Y641N, 640 nM.

`CC(=O)N1C2CCC1c1cc(-c3cc(C(=O)NCc4c(C)cc(C)[nH]c4=O)c(C)c(-c4ccnn4C)c3)ccc12` (stereo not drawn) [Example 6, 5-[9-acetyl-1,2,3,4-tetrahydro-1,4-epiminonaphthalene-6-yl]-N-[(4,6-dimethyl-2-oxo-1,2-dihydropyridin-3-yl)methyl]-2-methyl-3-(1-methyl-1H-pyrazol-5-yl)benzamide]: the values for the concentration for half-maximal inhibition (IC50) (in test [1]; at EZH2PRC2 mutant Y641N) were 22 nM and 820 nM, respectively.

As for `Cc1cc(C)c(CNC(=O)c2cc(-c3ccc(CN4CCOCC4)cc3)cc(-c3ccnn3C)c2C)c(=O)[nH]1` [Example 150, N-[(4,6-dimethyl-2-oxo-1,2-dihydropyridin-3-yl)methyl]-4-methyl-5-(1-methyl-1H-pyrazol-5-yl)-4′-(morpholin-4-ylmethyl)bi-phenyl-3-carboxamide], the IC50 amounted to 113 nM in test [1] and 679 nM at EZH2PRC2 mutant Y641N.

As to `Cc1cc(C)c(CNC(=O)c2cc(-c3cnc(N)nc3)cc(-c3ccnn3C)c2C)c(=O)[nH]1` [Example 16, 5-(2-aminopyrimidin-5-yl)-N-[(4,6-dimethyl-2-oxo-1,2-dihydropyridin-3-yl)methyl]-2-methyl-3-(1-methyl-1H-pyrazol-5-yl)benzamide], the IC50 was 84 nM in test [1] and 1330 nM at EZH2PRC2 mutant Y641N.

With `Cc1cc(C)c(CNC(=O)c2cc(-c3ccc(N4CCN(C)CC4)nc3)cc(-c3ccnn3C)c2C)c(=O)[nH]1` [Example 149, N-[(4,6-dimethyl-2-oxo-1,2-dihydropyridin-3-yl)methyl]-2-methyl-5-[6-(4-methylpiperazin-1-yl)pyridin-3-yl]-3-(1-methyl-1H-pyrazol-5-yl)benzamide], the values for the half-inhibitory concentration (IC50) (in test [1]; on EZH2PRC2 mutant Y641N) were 34.2 nM and 198 nM, respectively.

Regarding `Cc1cc(C)c(CNC(=O)c2ncnc(N3CCN(c4ncccn4)C[C@@H]3C)c2C)c(=O)[nH]1` [Example 31, (S)—N-((4,6-dimethyl-2-oxo-1,2-dihydropyridin-3-yl)methyl)-5-methyl-6-(2-methyl-4-(pyrimidin-2-yl)piperazin-1-yl)pyrimidine-4-carboxamide], the IC50 came out at 140 nM in test [1] and 1310 nM at EZH2PRC2 mutant Y641N.

For the compound `Cc1cc(C)c(CNC(=O)c2cc(-c3cnc(N(C)C)nc3)cc(-c3ccnn3C)c2C)c(=O)[nH]1` [Example 13, 5-[2-(dimethylamino)pyrimidin-5-yl]-N-[(4,6-dimethyl-2-oxo-1,2-dihydropyridin-3-yl)methyl]-2-methyl-3-(1-methyl-1H-pyrazol-5-yl)benzamide], the IC50 amounted to 38 nM in test [1] and 620 nM on EZH2PRC2 mutant Y641N.
